Measured values: the supplement of paper PMC10883282
± gives the standard deviation of the averaged measurements.

System: SK-ES-1
Test: relative viability vs DMSO control (72 h) (fraction); higher = more viable cells
Summary of the method: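 Percent growth from ATPLite readings, averaged over up to triplicate wells, was used as relative viability. Sarcoma cell lines were seeded into 384-well plates for 80–90% confluence, dosed after 24 h, and kept 72 h at 37 °C, 5% CO2. Data were rescaled to a range where 1 is full and 0 is none.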

| Structure (SMILES) | relative viability (0.00017 µM) | relative viability (0.00051 µM) | relative viability (0.00152 µM) | relative viability (0.00457 µM) | relative viability (0.01372 µM) | relative viability (0.04115 µM) | relative viability (0.1235 µM) | relative viability (0.3704 µM) | relative viability (1.111 µM) | relative viability (3.333 µM) | relative viability (10 µM) | relative viability (2 pM) | relative viability (5 pM) | relative viability (15 pM) | relative viability (50 pM) | relative viability (0.00014 µM) | relative viability (0.00041 µM) | relative viability (0.0012 µM) | relative viability (0.0037 µM) | relative viability (0.011 µM) | relative viability (200 fM) | relative viability (600 fM) |
| --- | --- | --- | --- | --- | --- | --- | --- | --- | --- | --- | --- | --- | --- | --- | --- | --- | --- | --- | --- | --- | --- | --- |
| C[C@@H]1CCN(C(=O)CC#N)C[C@@H]1N(C)c1ncnc2[nH]ccc12 [Tofacitinib] | 1 ± 0.032 | 1.05 ± 0.059 | 1.01 ± 0.023 | 1.03 ± 0.049 | 1.04 ± 0.046 | 1.01 ± 0.056 | 0.997 ± 0.056 | 1.01 ± 0.049 | 0.985 ± 0.081 | 1.03 ± 0.056 | 1.02 ± 0.06 | – | – | – | – | – | – | – | – | – | – | – |
| CC[C@H](Nc1ncnc2[nH]cnc12)c1nc2cccc(F)c2c(=O)n1-c1ccccc1 [Idelalisib] | 1.06 ± 0.041 | 1.06 ± 0.06 | 1.03 ± 0.024 | 1.08 ± 0.018 | 1.08 ± 0.015 | 1.08 ± 0.051 | 1.04 ± 0.042 | 1.02 ± 0.021 | 1.01 ± 0.056 | 0.905 ± 0.052 | 0.827 ± 0.01 | – | – | – | – | – | – | – | – | – | – | – |
| COc1cc2nccc(Oc3ccc(NC(=O)Nc4cc(C)on4)c(Cl)c3)c2cc1OC [Tivozanib] | 1.02 ± 0.058 | 1.02 ± 0.019 | 1.03 ± 0.065 | 1.04 ± 0.028 | 1.11 ± 0.021 | 1.07 ± 0.021 | 1.08 ± 0.06 | 1.08 ± 0.023 | 1.06 ± 0.041 | 0.973 ± 0.035 | 0.518 ± 0.018 | – | – | – | – | – | – | – | – | – | – | – |
| COc1cc2c(cc1O)CCN[C@]21CS[C@@H]2c3c(OC(C)=O)c(C)c4c(c3[C@H](COC1=O)N1[C@@H]2[C@H]2c3c(cc(C)c(OC)c3O)C[C@@H]([C@@H]1O)N2C)OCO4 [Trabectedin] | – | – | – | – | – | – | – | – | – | – | – | 0.945 ± 0.051 | 0.859 ± 0.046 | 0.643 ± 0.086 | 0.388 ± 0.069 | 0.169 ± 0.019 | 0.0592 ± 0.008 | 0.00217 ± 0.0018 | 3.33e-05 ± 0.00035 | 0.0054 ± 0.0013 | 1.02 ± 0.063 | 0.938 ± 0.031 |
| N#CC[C@H](C1CCCC1)n1cc(-c2ncnc3[nH]ccc23)cn1 [Ruxolitinib] | 0.926 ± 0.028 | 0.974 ± 0.027 | 0.96 ± 0.038 | 0.9617 ± 0.0031 | 0.942 ± 0.039 | 0.95 ± 0.049 | 0.933 ± 0.024 | 0.959 ± 0.044 | 0.932 ± 0.025 | 0.897 ± 0.05 | 0.812 ± 0.04 | – | – | – | – | – | – | – | – | – | – | – |
| Cc1cc(C)c(/C=C2\C(=O)Nc3ccccc32)[nH]1 [Semaxanib] | 0.972 ± 0.06 | 1.01 ± 0.056 | 0.954 ± 0.028 | 1 ± 0.056 | 0.967 ± 0.055 | 0.999 ± 0.018 | 1 ± 0.027 | 0.986 ± 0.09 | 0.925 ± 0.042 | 0.934 ± 0.052 | 0.765 ± 0.068 | – | – | – | – | – | – | – | – | – | – | – |
| O=C(Cc1ccc(-c2ccc(OCCN3CCOCC3)cc2)cn1)NCc1ccccc1 [KX2-391] | 1.07 ± 0.02 | 1.11 ± 0.035 | 1.05 ± 0.059 | 1.07 ± 0.026 | 1.05 ± 0.032 | 0.235 ± 0.039 | 0.024 ± 0.0039 | 0.0226 ± 0.00042 | 0.0192 ± 0.0041 | 0.0176 ± 0.0029 | 0.0223 ± 0.0021 | – | – | – | – | – | – | – | – | – | – | – |
| COc1cc2c(Oc3ccc4[nH]c(C)cc4c3F)ncnc2cc1OCCCN1CCCC1 [Cediranib] | 1.04 ± 0.014 | 1.07 ± 0.058 | 1.1 ± 0.02 | 1.06 ± 0.033 | 1.06 ± 0.066 | 1.07 ± 0.015 | 1.062 ± 0.0014 | 1.07 ± 0.064 | 0.877 ± 0.033 | 0.763 ± 0.019 | 0.133 ± 0.049 | – | – | – | – | – | – | – | – | – | – | – |
| CO[C@H]1C[C@@H]2CC[C@@H](C)[C@@](O)(O2)C(=O)C(=O)N2CCCC[C@H]2C(=O)O[C@H]([C@H](C)C[C@@H]2CC[C@@H](OP(C)(C)=O)[C@H](OC)C2)CC(=O)[C@H](C)/C=C(\C)[C@@H](O)[C@@H](OC)C(=O)[C@H](C)C[C@H](C)/C=C/C=C/C=C/1C [Ridaforolimus] | 1.03 ± 0.059 | 1.04 ± 0.033 | 0.978 ± 0.051 | 0.806 ± 0.055 | 0.675 ± 0.037 | 0.643 ± 0.037 | 0.601 ± 0.014 | 0.555 ± 0.026 | 0.56 ± 0.0043 | 0.545 ± 0.029 | 0.52 ± 0.011 | – | – | – | – | – | – | – | – | – | – | – |
| Cc1cnc(Nc2ccc(OCCN3CCCC3)cc2)nc1Nc1cccc(S(=O)(=O)NC(C)(C)C)c1 [Fedratinib] | 0.99 ± 0.063 | 1.03 ± 0.045 | 1.047 ± 0.01 | 1.06 ± 0.028 | 1.04 ± 0.016 | 1.03 ± 0.023 | 0.859 ± 0.067 | 0.489 ± 0.014 | 0.123 ± 0.01 | 0.0173 ± 0.002 | 0.0056 ± 0.00035 | – | – | – | – | – | – | – | – | – | – | – |
| Cn1cc(-c2cc3c(N4CCN(c5ncc([C@@](C)(N)c6ccc(F)cc6)cn5)CC4)ncnn3c2)cn1 [Avapritinib] | 0.98 ± 0.026 | 0.981 ± 0.045 | 0.941 ± 0.011 | 1 ± 0.018 | 0.989 ± 0.05 | 0.96 ± 0.042 | 0.948 ± 0.027 | 0.975 ± 0.036 | 0.906 ± 0.018 | 0.778 ± 0.071 | 0.579 ± 0.022 | – | – | – | – | – | – | – | – | – | – | – |
| CN1CCN(c2ccc3nc(-c4c(N)c5c(F)cccc5[nH]c4=O)[nH]c3c2)CC1 [Dovitinib] | 1.02 ± 0.013 | 1.07 ± 0.037 | 1.044 ± 0.0086 | 1.03 ± 0.022 | 1.07 ± 0.015 | 0.963 ± 0.049 | 0.937 ± 0.039 | 0.676 ± 0.012 | 0.365 ± 0.0063 | 0.155 ± 0.017 | 0.0451 ± 0.0026 | – | – | – | – | – | – | – | – | – | – | – |
